Reference: patent publication US11358952B2, “Substituted 4-aminoisoindoline-1,3-dione compounds, compositions thereof, and methods of treatment therewith” (Celgene Corporation, priority 2018, dated 2022)

What follows are compounds tested on SU-DHL-4 cell line (assay: SU-DHL-4 cell proliferation assay (Cell Titer-Glo viability)). Settings: Homo sapiens; cell viability IC50 activity level, DLBCL cell line SU-DHL-4, 120 hours post-treatment; read-out: SU-DHL-4 Act.
Format: cell-based
Summary of the method: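 SU-DHL-4 cells (500/well, RPMI-1640 + 10% FBS) exposed to 20-point compound dilutions (0.5 nM–10 μM, 0.1% DMSO) for 120 h at 37°C, 5% CO2. Viability measured by Cell Titer-Glo luminescence at t0 and at 120 h. IC50 is the concentration giving 50% of DMSO control, from a four-parameter logistic fit.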

Row | IC50 [nM] | SMILES
1 | < 200 | NC(=O)c1ccc(N2CCN(Cc3ccc(CNc4cccc5c4C(=O)N(C4CCC(=O)NC4=O)C5=O)cc3)CC2)cn1 (stereo not shown) [Cpd 17, 5-(4-(4-((2-(2,6-dioxopiperidin-3-yl)-1,3-dioxoisoindolin-4-ylamino)methyl)benzyl)piperazin-1-yl)picolinamide]
2 | < 200 | NC(=O)c1ccc(N2CCN(Cc3ccc(CNc4cccc5c4C(=O)N([C@H]4CCC(=O)NC4=O)C5=O)c(F)c3)CC2)nc1 [Cpd 207, (S)-6-(4-(4-((2-(2,6-dioxopiperidin-3-yl)-1,3-dioxoisoindolin-4-ylamino)methyl)-3-fluorobenzyl)piperazin-1-yl)nicotinamide]
3 | < 200 | NC(=O)c1ccc(N2CCN(Cc3ccc(CNc4cccc5c4C(=O)N(C4CCC(=O)NC4=O)C5=O)c(F)c3)CC2)nc1 (stereo not shown) [Cpd 149, 6-(4-(4-((2-(2,6-dioxopiperidin-3-yl)-1,3-dioxoisoindolin-4-ylamino)methyl)-3-fluorobenzyl)piperazin-1-yl)nicotinamide]
4 | 200 to 500 | CCC1(OC)CCN(Cc2ccc(CNc3cccc4c3C(=O)N(C3CCC(=O)NC3=O)C4=O)cc2)CC1 (stereo not shown) [Cpd 128, 2-(2,6-dioxopiperidin-3-yl)-4-(4-((4-ethyl-4-methoxypiperidin-1-yl)methyl)benzylamino)isoindoline-1,3-dione]
5 | < 200 | N#Cc1ccc(N2CCN(Cc3ccc(CNc4cccc5c4C(=O)N(C4CCC(=O)NC4=O)C5=O)cc3)CC2)c(F)c1 (stereo not shown) [Cpd 28, 4-(4-(4-((2-(2,6-dioxopiperidin-3-yl)-1,3-dioxoisoindolin-4-ylamino)methyl)benzyl)piperazin-1-yl)-3-fluorobenzonitrile]
6 | 200 to 500 | O=C1CCC(N2C(=O)c3cccc(NCc4ccc(CN5CCC6(CCCO6)CC5)c(F)c4)c3C2=O)C(=O)N1 (stereo not shown) [Cpd 147, 4-(4-(1-oxa-8-azaspiro[4.5]decan-8-ylmethyl)-3-fluorobenzylamino)-2-(2,6-dioxopiperidin-3-yl)isoindoline-1,3-dione]
7 | < 200 | O=C1CCC(N2C(=O)c3cccc(NCc4ccc(CN5CC6(CCC6)C5)cc4)c3C2=O)C(=O)N1 (stereo not shown) [Cpd 115, 4-(4-(2-azaspiro[3.3]heptan-2-ylmethyl)benzylamino)-2-(2,6-dioxopiperidin-3-yl)isoindoline-1,3-dione]
8 | < 200 | O=C1CCC(N2C(=O)c3cccc(NCc4ccc(CN5CC(N6CC7CCC(C6)O7)C5)cc4)c3C2=O)C(=O)N1 (stereo not shown) [Cpd 224, 4-(4-((3-(8-oxa-3-azabicyclo[3.2.1]octan-3-yl)azetidin-1-yl)methyl)benzylamino)-2-(2,6-dioxopiperidin-3-yl)isoindoline-1,3-dione]
9 | 200 to 500 | CN1CCC2(CCN(Cc3ccc(CNc4cccc5c4C(=O)N(C4CCC(=O)NC4=O)C5=O)cc3)CC2)C1=O (stereo not shown) [Cpd 122, 2-(2,6-dioxopiperidin-3-yl)-4-(4-((2-methyl-1-oxo-2,8-diazaspiro[4.5]decan-8-yl)methyl)benzylamino)isoindoline-1,3-dione]
10 | 200 to 500 | NC(=O)c1cc(N2CCN(Cc3ccc(CNc4cccc5c4C(=O)N(C4CCC(=O)NC4=O)C5=O)cc3)CC2)ccn1 (stereo not shown) [Cpd 189, 4-(4-(4-((2-(2,6-dioxopiperidin-3-yl)-1,3-dioxoisoindolin-4-ylamino)methyl)benzyl)piperazin-1-yl)picolinamide]
11 | < 200 | CC1(C)CN(c2ccc(C#N)cn2)CCN1Cc1ccc(CNc2cccc3c2C(=O)N(C2CCC(=O)NC2=O)C3=O)cc1 (stereo not shown) [Cpd 84, 6-(4-(4-((2-(2,6-dioxopiperidin-3-yl)-1,3-dioxoisoindolin-4-ylamino)methyl)benzyl)-3,3-dimethylpiperazin-1-yl)nicotinonitrile]
12 | 200 to 500 | Cc1cc(CNc2cccc3c2C(=O)N(C2CCC(=O)NC2=O)C3=O)ccc1CN1CCC(N2CCOCC2)CC1 (stereo not shown) [Cpd 211, 2-(2,6-dioxopiperidin-3-yl)-4-(3-methyl-4-((4-morpholinopiperidin-1-yl)methyl)benzylamino)isoindoline-1,3-dione]
13 | < 200 | Cc1cc(CN2CCC(C(C)(C)C)CC2)ccc1CNc1cccc2c1C(=O)N(C1CCC(=O)NC1=O)C2=O (stereo not shown) [Cpd 96, 4-(4-((4-tert-butylpiperidin-1-yl)methyl)-2-methylbenzylamino)-2-(2,6-dioxopiperidin-3-yl)isoindoline-1,3-dione]
